Where two headings read alike, the source gives them in different places.
Legend:
[1] = system: human MDA-MB-231 breast tumor cells; assay: Growth assay (Cell Titer Glo); assay type: cell-based; conditions: for inhibition at 10 µM / % Growth Inhibition at 10 μM: mean +/− spread
Protocol: (§1) All human tumor cell lines were obtained from ATCC and grown under standard cell culture conditions at 37° C. in a humidified atmosphere with 5% CO2. Cells were grown in RPMI 1640 supplemented with 5% fetal bovine serum 2 mM glutamine, 100 units/ml penicillin, 100 units/ml streptomycin, and 0.25 μg/ml amphotericin. Cells were harvested at 70 to 90% confluence with trypsin/EDTA and used immediately Cell count and viability was determined by Trypan blue staining followed by hemocytometry. Only cultures displaying >95% cell viability were used for experiments. HMEC were grown according to the specifications from the supplier (Lonzo).
(§2) Tissue culture microtiter 96-well plates were seeded with cells at a density of 5,000 cells/well. The plates were incubated for 18-24 hours prior to any treatment. All test compounds were solubilized in 100% DMSO and diluted with media to obtain a final DMSO concentration of 0.1%. Cell viability was measured 72 hours after treatment by the Cell Titer Glo Assay (Promega), which is a luminescent assay that is an indicator of live cells as a function of metabolic activity and ATP content. The assay was performed according to manufacturer's specifications. Luminescence was measured by a Perkin Elmer Victor® multi-label plate reader.^6
(§3) Dose response curves were analyzed using Prism™ 4 software (GraphPad) to calculate IC50 values using a four parameter logistic equation.

CACO-2 = assay: Growth assay (Cell Titer Glo); assay type: cell-based; conditions: Homo sapiens; CACO-2 colon; 72 h
Protocol: (§4) Compounds 2a-h were tested for tumor cell growth inhibitory activity using the human breast MDA-MB-231 and ZR75-1 tumor cell lines and the colon CACO-2, SW-1116, and HT-29 tumor cell lines.
as §1, §2, §3

ZR75-1 = assay: Growth assay (Cell Titer Glo); assay type: cell-based; conditions: Homo sapiens, ZR-75-1; ZR75-1 breast; 72 h
Protocol: as §4, §1, §2, §3

SW1116 = assay: Growth assay (Cell Titer Glo); assay type: cell-based; conditions: Homo sapiens, SW 1116; SW1116 colon; 72 h
Protocol: as §4, §1, §2, §3

HT-29 = assay: Growth assay (Cell Titer Glo); assay type: cell-based, human; conditions: HT-29 colon
Protocol: as §4, §1, §2, §3

[2] = Homo sapiens, MDA-MB-231, MDA-MB-231
[3] = Homo sapiens, MDA-MB-231, MDA-MB-231, Tables 1 and 2, read-out: Growth Inhibition IC50, μM (95% CI)
[4] = Homo sapiens, MDA-MB-231, 72 h, MDA-MB-231 breast, 72 h, Tables 3-5, read-out: IC50 value, μM, growth
[5] = MDA-MB-231, Tables 1 and 2, read-out: Growth Inhibition IC50, μM (95% CI)
[6] = MDA-MB-231 breast, 72 h, Tables 3-5, read-out: IC50 value, μM, growth

melting point [°C]	IC50 [1, 4] [µM]	Structure (SMILES)	inhibition at 10 µM [1, 2] [%]	further results
102 to 105		COC(=O)[C@H]1Cc2c([nH]c3ccccc23)[C@@H](c2cc(OC)ccc2OC)N1 [Compound 1e, (1R,3R) Methyl 1-(2,5-dimethoxyphenyl)-2,3,4,9-tetrahydro-1H-β-carboline-3-carboxylate]		
139 to 142		COC(=O)[C@H]1Cc2c([nH]c3ccccc23)[C@H](c2cc(OC)ccc2OC)N1 [Compound 1f, (1S,3R) Methyl 1-(2,5-dimethoxyphenyl)-2,3,4,9-tetrahydro-1H-β-carboline-3-carboxylate]		
100 to 102		COC(=O)[C@@H]1Cc2c([nH]c3ccccc23)[C@H](c2cc(OC)ccc2OC)N1 [Compound 1g, (1S,3S) Methyl 1-(2,5-dimethoxyphenyl)-2,3,4,9-tetrahydro-1H-β-carboline-3-carboxylate]		
138 to 141		COC(=O)[C@@H]1Cc2c([nH]c3ccccc23)[C@@H](c2cc(OC)ccc2OC)N1 [Compound 1h, (1R,3S) Methyl 1-(2,5-dimethoxyphenyl)-2,3,4,9-tetrahydro-1H-β-carboline-3-carboxylate]		
88 to 92		COC(=O)[C@H]1Cc2c([nH]c3ccccc23)[C@@H](c2ccc(Cl)cc2Cl)N1 [Compound 1i, (1R,3R) Methyl-1-(2,4-dichlorophenyl)-2,3,4,9-tetrahydro-1H-β-carboline-3-carboxylate]	29	
130 to 133		COC(=O)[C@H]1Cc2c([nH]c3ccccc23)[C@H](c2ccc(Cl)cc2Cl)N1 [Compound 1j, (1S,3R) Methyl 1-(2,4-dichlorophenyl)-2,3,4,9-tetrahydro-1H-β-carboline-3-carboxylate]	78	IC50 [1, 3]: 6.73 µM
90 to 92		COC(=O)[C@@H]1Cc2c([nH]c3ccccc23)[C@H](c2ccc(Cl)cc2Cl)N1 [Compound 1k, (1S,3S)Methyl 1-(2,4-dichlorophenyl)-2,3,4,9-tetrahydro-1H-β-carboline-3-carboxylate]	50	
128 to 130		COC(=O)[C@@H]1Cc2c([nH]c3ccccc23)[C@@H](c2ccc(Cl)cc2Cl)N1 [Compound 1l, (1R,3S)Methyl 1-(2,4-dichlorophenyl)-2,3,4,9-tetrahydro-1H-β-carboline-3-carboxylate]	28	
90 to 92		COC(=O)[C@H]1Cc2c([nH]c3ccccc23)[C@@H](c2ccc(Cl)c(Cl)c2)N1 [Compound 1m, (1R,3R) Methyl-1-(3,4-dichlorophenyl)-2,3,4,9-tetrahydro-1H-β-carboline-3-carboxylate]	43	
140 to 143		COC(=O)[C@H]1Cc2c([nH]c3ccccc23)[C@H](c2ccc(Cl)c(Cl)c2)N1 [Compound 1n, (1S,3R) Methyl-1-(3,4-dichlorophenyl)-2,3,4,9-tetrahydro-1H-β-carboline-3-carboxylate]	100	IC50 [1, 3]: 4.62 µM
88 to 91		COC(=O)[C@@H]1Cc2c([nH]c3ccccc23)[C@H](c2ccc(Cl)c(Cl)c2)N1 [Compound 1o, (1S,3S) Methyl-1-(3,4-dichlorophenyl)-2,3,4,9-tetrahydro-1H-β-carboline-3-carboxylate]	62	IC50 [1, 3]: 6.98 µM
139 to 142		COC(=O)[C@@H]1Cc2c([nH]c3ccccc23)[C@@H](c2ccc(Cl)c(Cl)c2)N1 [Compound 1p, (1R,3S)Methyl-1-(3,4-dichlorophenyl)-2,3,4,9-tetrahydro-1H-β-carboline-3-carboxylate]	48	
102 to 105		COC(=O)[C@H]1Cc2c([nH]c3ccccc23)[C@@H](c2c(Cl)cccc2Cl)N1 [Compound 1q, (1R,3R) Methyl 1-(2,6-dichlorophenyl)-2,3,4,9-tetrahydro-1H-β-carboline-3 carboxylate]		
101 to 103		COC(=O)[C@@H]1Cc2c([nH]c3ccccc23)[C@H](c2c(Cl)cccc2Cl)N1 [Compound 1r, (1S,3S) Methyl 1-(2,6-dichlorophenyl)-2,3,4,9-tetrahydro-1H-β-carboline-3-carboxylate]	52	
	0.06	COC(=O)[C@H]1Cc2c([nH]c3ccccc23)[C@@H](c2ccccc2Br)N1C(=O)CCl [Compound 2a, Methyl (1R,3R)-1-(2-bromophenyl)-2-(2-chloroacetyl)-2,3,4,9-tetrahydro-1H-β-carboline-3-carboxylate]		IC50 (CACO-2): 0.79 µM; IC50 (ZR75-1): 3.52 µM; IC50 (SW1116): 2.79 µM; IC50 (HT-29; Homo sapiens, HT-29, 72 h): 1.9 µM
215 to 218	0.56	COC(=O)[C@H]1Cc2c([nH]c3ccccc23)[C@@H](c2ccc(Cl)cc2Cl)N1C(=O)CCl [Compound 2i, (1R,3R) Methyl 1-(2,4-dichlorophenyl)-2-(2-chloroacetyl)-2,3,4,9-tetrahydro-1H-β-carboline-3-carboxylate]	98	IC50 [1, 3]: 0.56 µM
215 to 218	0.38	COC(=O)[C@@H]1Cc2c([nH]c3ccccc23)[C@H](c2ccc(Cl)cc2Cl)N1C(=O)CCl [Compound 2k, (1S,3S) Methyl 1-(2,4dichlorophenyl)-2-(2-chloroacetyl)-2,3,4,9-tetrahydro-1H-β-carboline-3-carboxylate]	55	
109 to 112	1.24	COC(=O)[C@@H]1Cc2c([nH]c3ccccc23)[C@@H](c2ccc(Cl)cc2Cl)N1C(=O)CCl [Compound 2l, (1R,3S) Methyl 1-(2,4-dichlorophenyl)-2-(2-chloroacetyl)-2,3,4,9-tetrahydro-1H-β-carboline-3-carboxylate]	98	IC50 [1, 3]: 1.24 µM
283 to 285	> 10	COC(=O)[C@H]1Cc2c([nH]c3ccccc23)[C@@H](c2ccc(Cl)c(Cl)c2)N1C(=O)CCl [Compound 2m, (1R,3R) Methyl 1-(3,4-dichlorophenyl)-2-(2-chloroacetyl)-2,3,4,9-tetrahydro-1H-β-carboline-3-carboxylate]		
163 to 165	1.2	COC(=O)[C@H]1Cc2c([nH]c3ccccc23)[C@H](c2ccc(Cl)c(Cl)c2)N1C(=O)CCl [Compound 2n, (1S,3R) Methyl 1-(3,4dichlorophenyl)-2-(2-chloroacetyl)-2,3,4,9-tetrahydro-1H-β-carboline-3-carboxylate]	50	IC50 (HT-29; Homo sapiens, HT-29, 72 h): > 10 µM
283 to 284	> 10	COC(=O)[C@@H]1Cc2c([nH]c3ccccc23)[C@H](c2ccc(Cl)c(Cl)c2)N1C(=O)CCl [Compound 2o, (1S,3S) Methyl 1-(3,4-dichlorophenyl)-2-(2-chloroacetyl)-2,3,4,9-tetrahydro-1H-β-carboline-3-carboxylate]	43	
162 to 165	> 10	COC(=O)[C@@H]1Cc2c([nH]c3ccccc23)[C@@H](c2ccc(Cl)c(Cl)c2)N1C(=O)CCl [Compound 2p, (1R,3S) Methyl 1-(3,4-dichloro-phenyl)-2 (2-chloroacetyl)-2,3,4,9-tetrahydro-1H-β-carboline-3-carboxylate]	55	IC50 (HT-29; Homo sapiens, HT-29, 72 h): > 10 µM
147 to 150		COC(=O)C1Cc2c([nH]c3ccccc23)C(c2c(Cl)cccc2Cl)N1C(=O)CCl [Compound 2q, (1R,3R) Methyl 1-(2,6-dichlorophenyl)-2-(2-chloroacetyl)-2,3,4,9-tetrahydro 1H-β-carboline-3-carboxylate]		IC50 (HT-29; Homo sapiens, HT-29, 72 h): 1.5 µM; % Growth Inhibition at 10 μM ([1]; MDA-MB-231): 99 +/− 0.01%; IC50 [1, 5]: 0.05 µM; IC50 [1, 6]: 0.04 µM
153 to 156		COC(=O)C1Cc2c([nH]c3ccccc23)C(c2c(Cl)cccc2Cl)N1C(=O)CCl [Compound 2r, (1S,3S) Methyl 1-(2,6-dichlorophenyl)-2-(2-chloroacetyl)-2,3,4,9-tetrahydro-1H-β-carboline-3-carboxyl]		IC50 (HT-29; 72 h): 1 µM; % Growth Inhibition at 10 μM ([1]; MDA-MB-231): 24 +/− 0.54%; IC50 [1, 5]: 0.42 µM; IC50 [1, 6]: 0.44 µM
